Results as given in US4024277A, “Phosphoro-aminosulfenyl derivatives of benzofuran carbamates” (priority 1975, dated 1977).

Assays:
[1] = tested on: large milkweed bug; assay: Initial insecticidal activity, milkweed bug; assay type: in vivo, Oncopeltus fasciatus (Dallas); details: Oncopeltus fasciatus, 48-hour exposure, read-out: % Kill, Milkweed Bug
Text: (§1) a. Initial Insecticidal Activity
(§2) In this test, a candidate insecticide, in solution, is applied to either infested or uninfested plants or containers by spraying or dipping. (The preferred test procedure varies with insect species. The dipping method is better than the spraying method, and vice versa, for certain species of insects. Also some species are better adapted to the test by infesting after the chemical treatment rather than before.) Once the tests have been established, a 48-hour exposure period is observed before reading the tests. Insect species included in these tests are Mexican bean beetle (Epilachna varivestis Mulsant), pea aphid [Acyrthosiphon pisum (Harris)], southern armyworm [Spodoptera eridania (Cramer)], twospotted spider mite (Tetranychus urticae Koch), large milkweed bug [Oncopeltus fasciatus (Dallas)], plum curculio [Conotrachelus nenuphar (Herbst)], confused flour beetle (Tribolium confusum Jacquelin duVal) and granary weevil [Sitophilus granarius (Linnaeus)]. Test results are set forth in Table I. A control sample, comprising the solution without the candidate insecticide, is also included.

[2] = tested on: plum curculio; assay: Initial insecticidal activity, plum curculio; assay type: in vivo, Conotrachelus nenuphar (Herbst); details: Conotrachelus nenuphar, 48-hour exposure, read-out: % Kill, Plum Curculio
Text: as §1, §2

[3] = tested on: Mexican bean beetle; assay: Initial insecticidal activity, Mexican bean beetle; assay type: in vivo, Epilachna varivestis Mulsant; details: Epilachna varivestis, 48-hour exposure, read-out: % Kill, Mexican Bean Beetle
Text: as §1, §2

[4] = tested on: pea aphid; assay: Initial insecticidal activity, pea aphid; assay type: in vivo, Acyrthosiphon pisum (Harris); details: Acyrthosiphon pisum, 48-hour exposure, read-out: % Kill, Pea Aphid
Text: as §1, §2

[5] = tested on: southern armyworm; assay: Initial insecticidal activity, southern armyworm; assay type: in vivo, Spodoptera eridania (Cramer); details: Spodoptera eridania, 48-hour exposure, read-out: % Kill, Southern Armyworm
Text: as §1, §2

[6] = tested on: twospotted spider mite; assay: Initial insecticidal activity, twospotted spider mite; assay type: in vivo, Tetranychus urticae Koch; details: Tetranychus urticae, 48-hour exposure, read-out: % Kill, Twospotted Spider Mite
Text: as §1, §2

[7] = tested on: large milkweed bug; assay: Seven-day residual insecticidal activity, milkweed bug; assay type: in vivo, Oncopeltus fasciatus (Dallas); details: Oncopeltus fasciatus, 48-hour exposure, read-out: % Kill, Milkweed Bug
Text: (§3) b. Seven-Day Residual Insecticidal Activity
(§4) In this test, a candidate insecticide, in solution, is applied to uninfested plants or containers by dipping or spraying. A seven-day holding period is necessary before infestation. A 48-hour exposure period is observed before evaluation of the tests. The insect species used in this type of test are the same as those listed under initial activity.

[8] = tested on: plum curculio; assay: Seven-day residual insecticidal activity, plum curculio; assay type: in vivo, Conotrachelus nenuphar (Herbst); details: Conotrachelus nenuphar, 48-hour exposure, read-out: % Kill, Plum Curculio
Text: as §3, §4

[9] = tested on: confused flour beetle; assay: Seven-day residual insecticidal activity, confused flour beetle; assay type: in vivo, Tribolium confusum Jacquelin duVal; details: Tribolium confusum, 48-hour exposure, read-out: % Kill, Confused Flour Beetle
Text: as §3, §4

[10] = tested on: Mexican bean beetle; assay: Seven-day residual insecticidal activity, Mexican bean beetle; assay type: in vivo, Epilachna varivestis Mulsant; details: Epilachna varivestis, 48-hour exposure, read-out: % Kill, Mexican Bean Beetle
Text: as §3, §4

[11] = tested on: pea aphid; assay: Seven-day residual insecticidal activity, pea aphid; assay type: in vivo, Acyrthosiphon pisum (Harris); details: Acyrthosiphon pisum, 48-hour exposure, read-out: % Kill, Pea Aphid
Text: as §3, §4

[12] = tested on: Mexican bean beetle; assay: Systemic insecticidal activity (soil/water), Mexican bean beetle; assay type: in vivo, Epilachna varivestis Mulsant; details: Epilachna varivestis, 48-hour exposure, read-out: % Kill, Mexican Bean Beetle
Experimental: (§5) c. Systemic Insecticidal Acitivity (Soil/Water)
(§6) In this test, a candidate insecticide, in solution, is added to the soil of either uninfested pinto bean seedlings (Phaseolus vulgaris) or uninfested broad bean seedlings (Vicia faba var. Windsor). The plant species used depend on the insect species in the test. Usually, a 72-hour translocation period before infestation is required, followed by a 48-hour exposure period, before evaluation of the tests. The insect species used in the systemic tests are Mexican bean beetle, southern armyworm, pea aphid, and twospotted spider mite.

[13] = tested on: pea aphid; assay: Systemic insecticidal activity (soil/water), pea aphid; assay type: in vivo, Acyrthosiphon pisum (Harris); details: Acyrthosiphon pisum, 48-hour exposure, read-out: % Kill, Pea Aphid
Experimental: as §5, §6

[14] = tested on: twospotted spider mite; assay: Systemic insecticidal activity (soil/water), twospotted spider mite; assay type: in vivo, Tetranychus urticae Koch; details: Tetranychus urticae, 48-hour exposure, read-out: % Kill, Twospotted Spider Mite
Experimental: as §5, §6

[15] = tested on: German cockroaches; assay: Level I immersion test, German cockroaches; assay type: in vivo, Blattella germanica (Linnaeus); details: GC (male), 5 mg/milliliter
Experimental: (§7) e. Insecticidal Activity Against House Flies and German Cockroaches
Compounds of this invention were tested in a Level I test at 5 mg. of active compounds/milliliter of a solution of 40% acetone -- 60% water.
In this test a group of ten house flies (Musca domestica Linnaeus) were completely immersed in 25 ml. of the insecticidal test solution. After 10 seconds of immersion, the test solution is removed. The house flies are then transferred to holding cages lines with paper toweling. In the case of the house flies, the knockdown counts were recorded 10 minutes after termination of the immersion. The percent kill was recorded after 18-24 hours.
The same Level I test technique was employed using male German cockroaches [Blattella germanica (Linnaeus)]. In this case, the knockdown counts were recorded 30 minutes after the termination of the immersion.

[16] = tested on: German cockroaches; assay: Level II topical test, German cockroaches; assay type: in vivo, Blattella germanica (Linnaeus); details: GC (male), one microgram topically per insect
Experimental: as §7
In a Level II test the compounds of this invention were tested for insecticidal activity against female house flies (resistant) and male German cockroaches. Ten insects were anesthetized with carbon dioxide and placed in a container for about 2 hours, during which time the insects recovered to normal activity. The container confining the insects is fitted with a plunger which is used to force the insects against a nylon mesh at one end of the container. One microliter of an acetone solution containing one microgram of the candidate insecticide was applied topically to each insect. The plunger was withdrawn and the insects were allowed to move freely about the container. Knockdown counts were recorded 10 minutes after treatment of house flies and 30 minutes after treatment of cockroaches.

Q: Which mortality at 39 ppm ([1]; 39 ppm) does the source give for CCCOP(=O)(OCCC)N(C)SN(C)C(=O)Oc1cccc2c1OC(C)(C)C2 [2(d), 2,3-dihydro-2,2-dimethyl-7-benzofuranyl [(N-di-n-propoxyphosphinyl) (N-methyl)aminosulfenyl][methyl]carbamate] here?
A: 100%

Q: And the mortality at 156 ppm ([1]; 156 ppm)?
A: 100%

Q: And the mortality at 1250 ppm ([1]; 1250 ppm)?
A: 100%

Q: And the mortality at 39 ppm ([2]; 39 ppm)?
A: 0%

Q: What about the mortality at 156 ppm ([2]; 156 ppm) of the same compound?
A: 20%

Q: And the mortality at 1250 ppm ([2]; 1250 ppm)?
A: 100%

Q: And the mortality at 39 ppm ([3]; 39 ppm)?
A: 100%

Q: What about the mortality at 156 ppm ([3]; 156 ppm) of the same compound?
A: 100%

Q: And the mortality at 1250 ppm ([3]; 1250 ppm)?
A: 100%

Q: And the mortality at 39 ppm ([4]; 39 ppm)?
A: 86%

Q: What about the mortality at 156 ppm ([4]; 156 ppm) of the same compound?
A: 100%

Q: And the mortality at 1250 ppm ([4]; 1250 ppm)?
A: 100%

Q: And the mortality at 39 ppm ([5]; 39 ppm)?
A: 0%

Q: And the mortality at 156 ppm ([5]; 156 ppm)?
A: 54%

Q: What about the mortality at 1250 ppm ([5]; 1250 ppm) of the same compound?
A: 100%

Q: What about the mortality at 39 ppm ([6]; 39 ppm) of the same compound?
A: 39%

Q: And the mortality at 156 ppm ([6]; 156 ppm)?
A: 91%

Q: What about the mortality at 1250 ppm ([6]; 1250 ppm) of the same compound?
A: 100%

Q: What about the mortality at 39 ppm ([7]; 39 ppm) of the same compound?
A: 56%

Q: What about the mortality at 156 ppm ([7]; 156 ppm) of the same compound?
A: 100%

Q: And the mortality at 1250 ppm ([7]; 1250 ppm)?
A: 100%

Q: And the mortality at 39 ppm ([8]; 39 ppm)?
A: 0%

Q: What about the mortality at 156 ppm ([8]; 156 ppm) of the same compound?
A: 5%

Q: And the mortality at 1250 ppm ([8]; 1250 ppm)?
A: 86%

Q: What about the mortality at 39 ppm ([9]; 39 ppm) of the same compound?
A: 0%

Q: And the mortality at 156 ppm ([9]; 156 ppm)?
A: 2%

Q: What about the mortality at 1250 ppm ([9]; 1250 ppm) of the same compound?
A: 38%

Q: What about the mortality at 39 ppm ([10]; 39 ppm) of the same compound?
A: 50%

Q: What about the mortality at 156 ppm ([10]; 156 ppm) of the same compound?
A: 76%

Q: What about the mortality at 1250 ppm ([10]; 1250 ppm) of the same compound?
A: 100%

Q: And the mortality at 39 ppm ([11]; 39 ppm)?
A: 0%

Q: And the mortality at 156 ppm ([11]; 156 ppm)?
A: 0%

Q: What about the mortality at 1250 ppm ([11]; 1250 ppm) of the same compound?
A: 56%

Q: What about the mortality at 10 ppm ([12]; 10 ppm) of the same compound?
A: 20%

Q: What about the mortality at 39 ppm ([12]; 39 ppm) of the same compound?
A: 85%

Q: What about the mortality at 156 ppm ([12]; 156 ppm) of the same compound?
A: 100%

Q: What about the mortality at 10 ppm ([13]; 10 ppm) of the same compound?
A: 0%

Q: What about the mortality at 39 ppm ([13]; 39 ppm) of the same compound?
A: 11%

Q: What about the mortality at 156 ppm ([13]; 156 ppm) of the same compound?
A: 80%

Q: What about the mortality at 10 ppm ([14]; 10 ppm) of the same compound?
A: 0%

Q: And the mortality at 39 ppm ([14]; 39 ppm)?
A: 2%

Q: And the mortality at 156 ppm ([14]; 156 ppm)?
A: 18%

Q: And the mortality at 5000 µg/mL ([15]; Blattella germanica, 18-24 hours, read-out: % Kill)?
A: 100%

Q: What about the “% Knockdown” value ([15]; 30 minutes after immersion) of the same compound?
A: 100%

Q: What about the mortality at 0.001 mg ([16]; Blattella germanica, topical, read-out: % Kill) of the same compound?
A: 10%

Q: And the “% Knockdown” value ([16]; 30 minutes)?
A: 0%
